Experimental findings from ChEMBL document CHEMBL4651402, “Screening of ~5500 FDA-approved drugs and clinical candidates for anti-SARS-CoV-2 activity” (2021) are described below.

The subject of the assay is SARS-CoV-2. Put plainly: microbe, parasite or virus in culture. The conditions noted are these: Severe acute respiratory syndrome coronavirus 2, Vero C1008, 48 h.

Turning to `CN1Cc2c(ccc3c2OCO3)C2C(O)Cc3cc4c(cc3C21)OCO4` (stereo not drawn) [CHELIDONINE (+)], the IC50 is greater than 20 µM. Further, the IC50 (read-out: pIC50 (converted)) was greater than 20 µM.
For the compound `CC(=O)C1(O)CCC2C3CC(C)C4=CC(=O)C=CC4(C)C3(F)C(O)CC21C` (centres undefined), the IC50 is greater than 20 µM. Also, the IC50 (read-out: pIC50 (converted)) is greater than 20 µM.
`Cc1cc(CC(C)CC(C)(C)C)n(O)c(=O)c1` (centres undefined) [PIROCTONE] displayed an IC50 greater than 20 µM. Also, the IC50 (read-out: pIC50 (converted)) was greater than 20 µM.
For `O=C(/C=C/c1ccc(O)cc1)c1ccccc1O`, the IC50 is greater than 20 µM. For the same compound, the IC50 (read-out: pIC50 (converted)) is greater than 20 µM.
Compound `NC12CC3CC(CC(C3)C1)C2` [AMANTADINE] registered an IC50 greater than 20 µM. For the same compound, the IC50 (read-out: pIC50 (converted)) is greater than 20 µM.
Compound `CCCCN1C[C@H](O)[C@@H](O)[C@H](O)[C@H]1CO` showed an IC50 greater than 20 µM. Further, the IC50 (read-out: pIC50 (converted)) is greater than 20 µM.
`CCNC(=O)c1noc(-c2cc(C(C)C)c(O)cc2O)c1-c1ccc(CN2CCOCC2)cc1` [LUMINESPIB] registered an IC50 greater than 20 µM. For the same compound, where the note is “read-out: pIC50 (converted)”, the IC50 is greater than 20 µM.
Consider `C[C@H](Oc1ccc2[nH]nc(/C=C/c3cnn(CCO)c3)c2c1)c1c(Cl)cncc1Cl`, for which the IC50 is greater than 20 µM. In addition, the IC50 (read-out: pIC50 (converted)) is greater than 20 µM.
The compound `CC(=O)NCCOC(=O)[C@H](Oc1cccc(C(F)(F)F)c1)c1ccc(Cl)cc1` [ARHALOFENATE] displayed an IC50 greater than 20 µM. For the same compound, the IC50 (read-out: pIC50 (converted)) is greater than 20 µM.
With `Cc1cnc(C(=O)O)c[n+]1[O-]` [ACIPIMOX], the IC50 is greater than 20 µM. The IC50 (read-out: pIC50 (converted)) is greater than 20 µM.
The compound `N#Cc1cc(NC(=O)C(=O)O)c(Cl)c(NC(=O)C(=O)O)c1` [LODOXAMIDE] gave an IC50 greater than 20 µM. Further, where the note is “read-out: pIC50 (converted)”, the IC50 was greater than 20 µM.
Consider `CCC12CCN(CC3(O)CC3)C(Cc3ccc(O)cc31)C2(C)C` (centres undefined) [BREMAZOCINE], for which the IC50 was greater than 20 µM. For the same compound, the IC50 (read-out: pIC50 (converted)) is greater than 20 µM.
With `C=CCN1Cc2ccccc2-c2ccccc2C1` [AZAPETINE], the IC50 was greater than 20 µM. For the same compound, where the note is “read-out: pIC50 (converted)”, the IC50 was greater than 20 µM.
`CC(=O)Oc1ccccc1C(=O)O` [ASPIRIN]: the IC50 was greater than 20 µM. Besides, under “read-out: pIC50 (converted)”, the IC50 was greater than 20 µM.
Compound `C=CCn1c(N)cc(=O)n(CC)c1=O` [AMINOMETRADINE] registered an IC50 greater than 20 µM. Moreover, the IC50 (read-out: pIC50 (converted)) is greater than 20 µM.
`CC1C(=O)CC[C@@H]2C1(C)CC[C@H]1C2(C)CCC2(C)C3CC(C)(C)CCC3(C)CCC12C` (some centres undefined) returned an IC50 greater than 20 µM. Also, under “read-out: pIC50 (converted)”, the IC50 is greater than 20 µM.
Compound `N/C(=N\C(=O)c1nc(Cl)c(N)nc1N)NCc1ccccc1` [BENZAMIL] gave an IC50 greater than 20 µM. Moreover, the IC50 (read-out: pIC50 (converted)) was greater than 20 µM.
`COc1cc(OC)c2c(=O)cc(-c3ccccc3)oc2c1` [CHRYSIN DIMETHYL ETHER]: the IC50 was greater than 20 µM. Further, the IC50 (read-out: pIC50 (converted)) was greater than 20 µM.
Regarding `CC(=O)c1c(C)c2cnc(Nc3ccc(N4CCNCC4)cn3)nc2n(C2CCCC2)c1=O` [PALBOCICLIB], the IC50 is greater than 20 µM. Under “read-out: pIC50 (converted)”, the IC50 is greater than 20 µM.
Compound `COc1ccc(-c2nnc(C)nc2-c2ccc(OC)cc2)cc1` [ANITRAZAFEN] returned an IC50 greater than 20 µM. The IC50 (read-out: pIC50 (converted)) is greater than 20 µM.
`CCOC(=O)c1ncc2[nH]c3cccc(OCc4ccccc4)c3c2c1COC` registered an IC50 greater than 20 µM. Besides, the IC50 (read-out: pIC50 (converted)) was greater than 20 µM.
`O=C(O)c1ccccc1NCCc1ccccc1` [ENFENAMIC ACID]: the IC50 was greater than 20 µM. Besides, where the note is “read-out: pIC50 (converted)”, the IC50 was greater than 20 µM.
As for `CCCCCCN1CCN(/C(=N/CC(C)C)c2ccccc2)CC1`, the IC50 is greater than 20 µM. Under “read-out: pIC50 (converted)”, the IC50 is greater than 20 µM.
In turn, `CC(C)OC(=O)[C@H](C)N[P@](=O)(OC[C@@]1(F)O[C@@H](n2ccc(=O)[nH]c2=O)[C@](C)(O)[C@@H]1O)Oc1ccccc1` [ADAFOSBUVIR] displayed an IC50 greater than 20 µM. For the same compound, the IC50 (read-out: pIC50 (converted)) was greater than 20 µM.
`C[C@@H]1[C@@H]2Cc3ccc(O)cc3C1(C)CCN2C`: the IC50 is greater than 20 µM. The IC50 (read-out: pIC50 (converted)) is greater than 20 µM.
`CSc1ccc2ncn(/C=C/C(=O)O)c(=O)c2c1` displayed an IC50 greater than 20 µM. The IC50 (read-out: pIC50 (converted)) was greater than 20 µM.
In turn, `CC[C@@H]1CN(C(=O)NCC(F)(F)F)C[C@@H]1c1cnc2cnc3[nH]ccc3n12` [UPADACITINIB] displayed an IC50 greater than 20 µM. Also, the IC50 (read-out: pIC50 (converted)) was greater than 20 µM.
As for `CCOC(=O)Nc1ccc2c(c1)N(C(=O)CCN(CC)CC)c1ccccc1S2` [ETHACIZINE], the IC50 was greater than 20 µM. Further, for the setting “read-out: pIC50 (converted)”, the IC50 is greater than 20 µM.
Turning to `C[C@]12COC(=O)C[C@@H]1CC[C@@H]1[C@@H]2CC[C@@]2(C)[C@H]1CC[C@]2(C)O` [OXANDROLONE], the IC50 is greater than 20 µM. Also, the IC50 (read-out: pIC50 (converted)) was greater than 20 µM.
Compound `O=C(c1cc2ccccc2o1)N1CCN(Cc2ccccc2)CC1` [BEFURALINE] showed an IC50 greater than 20 µM. Moreover, where the note is “read-out: pIC50 (converted)”, the IC50 is greater than 20 µM.
With `S=C(NCc1ccc2c(c1)OCO2)N1CCN(c2ncnc3c2oc2ccccc23)CC1` [AMUVATINIB], the IC50 is greater than 20 µM. Moreover, the IC50 (read-out: pIC50 (converted)) is greater than 20 µM.
In turn, `O=C(Nc1ccccc1F)N[C@@H]1N=C(c2ccccc2)c2ccccc2NC1=O` yielded an IC50 greater than 20 µM. Besides, the IC50 (read-out: pIC50 (converted)) is greater than 20 µM.
Consider `CO[C@H]1/C=C/O[C@@]2(C)Oc3c(C)c(O)c4c(O)c(c(/C=N/N5CCN(C)CC5)c(O)c4c3C2=O)NC(=O)/C(C)=C\C=C\[C@H](C)[C@H](O)[C@@H](C)[C@@H](O)[C@@H](C)[C@H](OC(C)=O)[C@@H]1C` [RIFAMPIN], for which the IC50 was greater than 20 µM. The IC50 (read-out: pIC50 (converted)) was greater than 20 µM.
As for `C[N+]1(C)C[C@H](O)C[C@H]1C(=O)O`, the IC50 is greater than 20 µM. Under “read-out: pIC50 (converted)”, the IC50 was greater than 20 µM.
On to `COc1cc2c(cc1O)[C@@H]1Cc3ccc(OC)c(O)c3CN1CC2` [SCOULERINE], for which the IC50 was greater than 20 µM. Further, the IC50 (read-out: pIC50 (converted)) is greater than 20 µM.
As for `OC[C@H]1O[C@@](O)(CO)[C@@H](O)[C@@H]1O`, the IC50 is greater than 20 µM. For the same compound, the IC50 (read-out: pIC50 (converted)) was greater than 20 µM.
Compound `O=C(/C=C/c1cccnc1)NCCCCC1CCN(C(=O)c2ccccc2)CC1` [DAPORINAD] gave an IC50 greater than 20 µM. Under “read-out: pIC50 (converted)”, the IC50 is greater than 20 µM.
In turn, `Cc1cn([C@H]2C[C@H](O)[C@@H](CO)O2)c(=O)[nH]c1=O` [DOXRIBTIMINE] returned an IC50 greater than 20 µM. For the same compound, the IC50 (read-out: pIC50 (converted)) is greater than 20 µM.
`CCOC(=O)[C@H](CCc1ccccc1)N[C@@H](C)C(=O)N1[C@H](C(=O)O)C[C@H]2CCCC[C@@H]21` [TRANDOLAPRIL]: the IC50 was greater than 20 µM. Besides, the IC50 (read-out: pIC50 (converted)) was greater than 20 µM.
`COc1cccc(C(=O)CCNC(C)C(O)c2ccccc2)c1` (centres undefined): the IC50 is greater than 20 µM. Further, under “read-out: pIC50 (converted)”, the IC50 was greater than 20 µM.
On to `O=C(c1ccccc1)c1ccc2n1CCC2C(=O)O` (centres undefined) [KETOROLAC], for which the IC50 was greater than 20 µM. Besides, under “read-out: pIC50 (converted)”, the IC50 is greater than 20 µM.
For `O=C1CC(c2ccc(O)c(O)c2)Oc2cc(O)cc(O)c21` (centres undefined), the IC50 was greater than 20 µM. Besides, the IC50 (read-out: pIC50 (converted)) was greater than 20 µM.
As for `Fc1ccc(C(c2ccc(F)cc2)N2CCN(C/C=C\c3ccccc3)CC2)cc1`, the IC50 is greater than 20 µM. Further, under “read-out: pIC50 (converted)”, the IC50 is greater than 20 µM.
`C=CCN1CCCC1CNC(=O)c1cc2nn[nH]c2cc1OC` (centres undefined) [ALIZAPRIDE] returned an IC50 greater than 20 µM. The IC50 (read-out: pIC50 (converted)) was greater than 20 µM.
Take `O=[N+]([O-])/C(Br)=C\c1ccc(Br)o1`: the IC50 is greater than 20 µM. Besides, the IC50 (read-out: pIC50 (converted)) is greater than 20 µM.
The compound `COc1ccc(CC(C)C(C)Cc2ccc(OC)c(OC)c2)cc1OC` (centres undefined) displayed an IC50 greater than 20 µM. The IC50 (read-out: pIC50 (converted)) is greater than 20 µM.
`Cc1c2c(cn1C)NC(=O)CN=C2c1ccccc1` [PREMAZEPAM]: the IC50 is greater than 20 µM. The IC50 (read-out: pIC50 (converted)) was greater than 20 µM.
